Laboratory results published in ChEMBL document CHEMBL4396872, “Pharmacokinetics-Driven Optimization of 4(3 H)-Pyrimidinones as Phosphodiesterase Type 5 Inhibitors Leading to TPN171, a Clinical Candidate for the Treatment of Pulmonary Arterial Hypertension” (J Med Chem, 2019).
Calls of active or inactive are those of the source. The rule behind the calls is not given here.

How the values were obtained:
Rattus norvegicus [1] = assay: […] activity in MCT-induced pulmonary arterial hypertension Sprague-Dawley rat model assessed as reduction in mean pulmonary artery pressure at 100 mg/kg administered once daily for 21 days starting from 21 days post-MCT challenge by right cardiac catheter method; type: functional, organism-based
Rattus norvegicus [2] = assay: […] activity in MCT-induced pulmonary arterial hypertension Sprague-Dawley rat model assessed as reduction in mean pulmonary artery pressure at 1 mg/kg administered once daily for 21 days starting from 21 days post-MCT challenge by right cardiac catheter method; type: functional, organism-based
Rattus norvegicus [3] = assay: […] activity in MCT-induced pulmonary arterial hypertension Sprague-Dawley rat model assessed as reduction in mean pulmonary artery pressure at 25 mg/kg administered once daily for 21 days starting from 21 days post-MCT challenge by right cardiac catheter method; type: functional, organism-based
Homo sapiens = organism: Homo sapiens; assay: Selectivity ratio of IC50 for N-terminal GST-tagged human PDE6C to IC50 for N-terminal GST-tagged human PDE5A1
[4] = biological target: cGMP-specific 3',5'-cyclic phosphodiesterase (Homo sapiens, UniProt O76074); assay: Inhibition of N-terminal GST-tagged human PDE5A1 expressed in baculovirus infected sf9 cells using [3H]cGMP as substrate measured after 30 mins by scintillation proximity assay
[5] = Metabolic stability in human liver microsomes assessed as parent compound remaining at 1 uM in presence of NADPH after 30 mins by LC-MS/MS analysis; type: ADME, Microsome; settings: read-out: Stability
[6] = Clearance in iv dosed rat; type: ADME, organism-based; settings: in vivo
[7] = Volume of distribution at steady state in iv dosed rat; type: ADME, organism-based; settings: in vivo
[8] = biological target: cAMP and cAMP-inhibited cGMP 3',5'-cyclic phosphodiesterase 10A (Homo sapiens, UniProt Q9Y233); assay: Inhibition of N-terminal GST-tagged human PDE10A expressed in baculovirus infected sf9 cells using [3H]cAMP as substrate measured after 30 mins by scintillation proximity assay
cAMP and cAMP-inhibited cGMP 3',5'-cyclic phosphodiesterase 10A, sequence (Q9Y233 whole entry): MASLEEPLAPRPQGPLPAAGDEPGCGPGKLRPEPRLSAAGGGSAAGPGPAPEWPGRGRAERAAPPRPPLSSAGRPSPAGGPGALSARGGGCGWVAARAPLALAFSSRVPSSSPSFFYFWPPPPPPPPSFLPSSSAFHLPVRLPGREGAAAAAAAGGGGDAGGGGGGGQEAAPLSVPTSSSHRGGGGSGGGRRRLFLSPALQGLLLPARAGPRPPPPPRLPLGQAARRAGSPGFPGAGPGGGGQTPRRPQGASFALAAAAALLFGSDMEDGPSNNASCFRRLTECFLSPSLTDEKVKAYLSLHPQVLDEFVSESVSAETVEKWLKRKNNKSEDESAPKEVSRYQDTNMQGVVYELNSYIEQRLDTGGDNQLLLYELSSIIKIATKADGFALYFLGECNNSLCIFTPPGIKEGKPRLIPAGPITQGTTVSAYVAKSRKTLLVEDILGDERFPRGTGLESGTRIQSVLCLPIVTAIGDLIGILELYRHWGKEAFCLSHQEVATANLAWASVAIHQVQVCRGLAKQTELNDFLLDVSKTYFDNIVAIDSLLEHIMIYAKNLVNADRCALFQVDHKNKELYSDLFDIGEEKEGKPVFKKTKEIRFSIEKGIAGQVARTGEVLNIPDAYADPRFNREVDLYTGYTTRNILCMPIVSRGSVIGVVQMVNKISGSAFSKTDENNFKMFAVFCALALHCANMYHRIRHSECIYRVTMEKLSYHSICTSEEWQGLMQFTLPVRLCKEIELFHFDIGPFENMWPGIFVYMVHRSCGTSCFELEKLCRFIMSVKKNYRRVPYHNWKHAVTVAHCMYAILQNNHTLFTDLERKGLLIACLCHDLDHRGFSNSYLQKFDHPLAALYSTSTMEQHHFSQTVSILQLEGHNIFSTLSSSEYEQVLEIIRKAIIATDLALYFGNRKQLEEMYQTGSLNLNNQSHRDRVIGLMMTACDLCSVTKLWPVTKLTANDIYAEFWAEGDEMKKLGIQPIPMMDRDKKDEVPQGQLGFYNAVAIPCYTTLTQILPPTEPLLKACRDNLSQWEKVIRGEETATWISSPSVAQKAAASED

Phosphodiesterase 7 = Phosphodiesterase 7 (Homo sapiens, UniProt Q13946+Q9NP56); assay: Inhibition of N-terminal GST-tagged human PDE7 expressed in baculovirus infected sf9 cells using [3H]cAMP as substrate measured after 30 mins by scintillation proximity assay
[9] = biological target: High affinity cAMP-specific and IBMX-insensitive 3',5'-cyclic phosphodiesterase 8A (Homo sapiens, UniProt O60658); assay: Inhibition of N-terminal GST-tagged full length human PDE8A1 expressed in baculovirus infected sf9 cells using [3H]cAMP as substrate measured after 30 mins by scintillation proximity assay
High affinity cAMP-specific and IBMX-insensitive 3',5'-cyclic phosphodiesterase 8A, sequence (O60658 whole entry): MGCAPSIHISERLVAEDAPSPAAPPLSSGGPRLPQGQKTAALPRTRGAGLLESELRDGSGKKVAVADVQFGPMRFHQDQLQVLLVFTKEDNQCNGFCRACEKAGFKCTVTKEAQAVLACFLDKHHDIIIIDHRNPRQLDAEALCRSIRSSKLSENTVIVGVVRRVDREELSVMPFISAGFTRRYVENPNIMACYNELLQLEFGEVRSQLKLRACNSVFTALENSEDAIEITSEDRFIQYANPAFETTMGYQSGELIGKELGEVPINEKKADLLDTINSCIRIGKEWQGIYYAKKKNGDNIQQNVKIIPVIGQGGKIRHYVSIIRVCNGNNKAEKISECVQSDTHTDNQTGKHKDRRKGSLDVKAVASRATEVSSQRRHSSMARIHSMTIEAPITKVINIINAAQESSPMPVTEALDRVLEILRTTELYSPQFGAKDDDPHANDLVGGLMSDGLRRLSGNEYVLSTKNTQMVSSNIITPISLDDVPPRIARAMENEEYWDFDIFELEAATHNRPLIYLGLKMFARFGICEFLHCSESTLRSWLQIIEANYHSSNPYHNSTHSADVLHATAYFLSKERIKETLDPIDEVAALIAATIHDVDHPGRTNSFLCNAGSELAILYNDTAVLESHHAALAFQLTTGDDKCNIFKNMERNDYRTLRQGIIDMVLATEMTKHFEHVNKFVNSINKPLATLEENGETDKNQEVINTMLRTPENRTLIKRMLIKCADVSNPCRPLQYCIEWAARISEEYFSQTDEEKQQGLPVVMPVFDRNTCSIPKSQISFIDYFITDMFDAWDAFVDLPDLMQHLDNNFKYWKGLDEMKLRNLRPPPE

Phosphodiesterase 1 = Phosphodiesterase 1 (Homo sapiens, UniProt P54750+Q01064+Q14123); assay: Inhibition of N-terminal GST-tagged human PDE1 expressed in baculovirus infected sf9 cells using [3H]cAMP as substrate measured after 30 mins by scintillation proximity assay
Phosphodiesterase 3 = Phosphodiesterase 3 (Homo sapiens, UniProt Q14432+Q13370); assay: Inhibition of N-terminal GST-tagged human PDE3 expressed in baculovirus infected sf9 cells using [3H]cAMP as substrate measured after 30 mins by scintillation proximity assay
[10] = biological target: cGMP-dependent 3',5'-cyclic phosphodiesterase (Homo sapiens, UniProt O00408); assay: Inhibition of human PDE2A1 expressed in baculovirus infected sf9 cells using [3H]cAMP as substrate measured after 30 mins by scintillation proximity assay
cGMP-dependent 3',5'-cyclic phosphodiesterase, sequence (O00408 whole entry): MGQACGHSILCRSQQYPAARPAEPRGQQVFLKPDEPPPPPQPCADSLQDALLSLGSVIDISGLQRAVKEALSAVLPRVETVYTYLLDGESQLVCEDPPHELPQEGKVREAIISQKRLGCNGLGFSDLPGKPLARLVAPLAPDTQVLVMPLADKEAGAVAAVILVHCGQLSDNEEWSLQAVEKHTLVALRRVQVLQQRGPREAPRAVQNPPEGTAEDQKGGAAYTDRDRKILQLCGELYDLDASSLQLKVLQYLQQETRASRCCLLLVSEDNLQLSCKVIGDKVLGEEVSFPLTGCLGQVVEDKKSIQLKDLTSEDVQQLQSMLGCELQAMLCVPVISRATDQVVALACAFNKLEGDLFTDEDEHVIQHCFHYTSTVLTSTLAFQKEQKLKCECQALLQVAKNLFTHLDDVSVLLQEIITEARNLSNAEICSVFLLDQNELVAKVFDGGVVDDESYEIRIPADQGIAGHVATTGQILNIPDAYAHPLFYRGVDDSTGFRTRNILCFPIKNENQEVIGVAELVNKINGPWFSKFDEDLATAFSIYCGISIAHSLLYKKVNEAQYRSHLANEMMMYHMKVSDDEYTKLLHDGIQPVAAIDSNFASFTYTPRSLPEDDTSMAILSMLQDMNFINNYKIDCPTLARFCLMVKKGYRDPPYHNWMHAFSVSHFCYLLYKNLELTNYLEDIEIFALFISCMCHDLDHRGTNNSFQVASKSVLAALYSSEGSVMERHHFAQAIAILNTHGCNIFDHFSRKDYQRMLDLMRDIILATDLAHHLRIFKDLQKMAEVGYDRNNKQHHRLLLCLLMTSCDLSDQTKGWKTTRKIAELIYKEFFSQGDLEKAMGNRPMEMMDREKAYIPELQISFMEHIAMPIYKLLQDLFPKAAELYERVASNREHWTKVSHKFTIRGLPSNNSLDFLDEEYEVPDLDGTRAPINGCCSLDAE

[11] = biological target: High affinity cGMP-specific 3',5'-cyclic phosphodiesterase 9A (Homo sapiens, UniProt O76083); assay: Inhibition of N-terminal GST-tagged full length human PDE9A2 expressed in baculovirus infected sf9 cells using [3H]cGMP as substrate measured after 30 mins by scintillation proximity assay
High affinity cGMP-specific 3',5'-cyclic phosphodiesterase 9A, sequence (O76083 whole entry): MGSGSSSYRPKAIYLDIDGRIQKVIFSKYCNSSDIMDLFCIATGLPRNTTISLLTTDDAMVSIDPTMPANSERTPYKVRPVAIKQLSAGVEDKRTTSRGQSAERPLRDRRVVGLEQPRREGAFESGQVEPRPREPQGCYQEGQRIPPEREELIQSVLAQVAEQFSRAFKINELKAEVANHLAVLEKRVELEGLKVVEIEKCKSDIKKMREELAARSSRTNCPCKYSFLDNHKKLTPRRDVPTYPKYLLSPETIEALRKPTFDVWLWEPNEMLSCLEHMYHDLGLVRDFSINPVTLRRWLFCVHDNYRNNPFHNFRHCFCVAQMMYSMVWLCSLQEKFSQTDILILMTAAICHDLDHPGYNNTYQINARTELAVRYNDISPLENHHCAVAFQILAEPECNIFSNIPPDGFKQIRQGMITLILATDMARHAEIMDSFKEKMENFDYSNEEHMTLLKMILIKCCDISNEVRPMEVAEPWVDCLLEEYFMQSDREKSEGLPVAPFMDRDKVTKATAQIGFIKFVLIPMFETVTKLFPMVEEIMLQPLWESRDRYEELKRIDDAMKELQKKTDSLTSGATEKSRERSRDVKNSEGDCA

Which Activity (Rattus norvegicus [1]) does the source give for COc1ccccc1Oc1c(NS(=O)(=O)c2ccc(C(C)(C)C)cc2)nc(-c2ncccn2)nc1OCCO here?
The Activity was “Active”.

What about the Activity (Rattus norvegicus [2]) of the same molecule?
Its Activity is “Active”.

And the Activity (Rattus norvegicus [3])?
The Activity was “Active”.

For CCCOc1ccc(NC(=O)N2CCCC2)cc1-c1nc(CC)c(CC)c(=O)[nH]1, which Ratio IC50 (Homo sapiens) is on record?
The Ratio IC50 was 11.

Which Ratio IC50 (Homo sapiens) does the source give for CCCOc1ccc(NC(=O)CCCNC(C)=O)cc1-c1nc(CC)c(CC)c(=O)[nH]1 here?
The Ratio IC50 was 7.

With CCCOc1ccc(NC(=O)C2CCN(C)CC2)cc1-c1nc(CC)c(CC)c(=O)[nH]1 as the molecule, how does the IC50 [4] read?
Its IC50 is 0.00079 µM.

And the Ratio IC50 (Homo sapiens)?
Its Ratio IC50 is 24.

For CCCOc1ccc(NS(C)(=O)=O)cc1-c1nc(CC)c(CC)c(=O)[nH]1, which remaining at 0.5 h, 1 µM [5] is on record?
The remaining at 0.5 h, 1 µM was 27%.

And the Ratio IC50 (Homo sapiens)?
Its Ratio IC50 is 28.

With CCCOc1ccc(NC(=O)C(=O)N2CCN(C)CC2)cc1-c1nc(CC)c(CC)c(=O)[nH]1 as the molecule, how does the IC50 [4] read?
Its IC50 is 0.00155 µM.

What about the Ratio IC50 (Homo sapiens) of the same molecule?
The Ratio IC50 was 17.

For CCCOc1ccc(NC(N)=O)cc1-c1nc(CC)c(CC)c(=O)[nH]1, which Ratio IC50 (Homo sapiens) is on record?
Its Ratio IC50 is 17.

With CCCOc1ccc(S(=O)(=O)N2CCN(C)CC2)cc1-c1nc(CC)c(CC)c(=O)[nH]1 as the molecule, how does the remaining at 0.5 h, 1 µM [5] read?
The remaining at 0.5 h, 1 µM was 29%.

With CCCOc1ccc(NC(=O)CN2CCCCC2)cc1-c1nc(CC)c(CC)c(=O)[nH]1 as the molecule, how does the IC50 [4] read?
Its IC50 is 0.00146 µM.

And the Ratio IC50 (Homo sapiens)?
Its Ratio IC50 is 9.

What does the source list for CN1CC(=O)N2[C@H](c3ccc4c(c3)OCO4)c3[nH]c4ccccc4c3C[C@@H]2C1=O?
CL [6]: 5.17 mL/min/kg; Vdss [7]: 5.2 L/kg; IC50 [8]: > 10 µM; IC50 (Phosphodiesterase 7): > 10 µM; IC50 [9]: > 10 µM; IC50 (Phosphodiesterase 1): > 10 µM; IC50 (Phosphodiesterase 3): > 10 µM; IC50 [10]: > 10 µM; IC50 [11]: > 10 µM
